Measured values published in article PMC10316084, “Bacteroidota polysaccharide utilization system for branched dextran exopolysaccharides from lactic acid bacteria” (The Journal of Biological Chemistry, 2023).

Columns and labels:
FjDusD = target: T1, FjDusD (Flavobacterium johnsoniae, UniProt A5FBI4); assay: isothermal titration calorimetry; type: binding; settings: 10 mM HEPES-NaOH pH 7.0, 25 °C; one-site model (n = 1)
T1 construct: gene Fjoh_4433; signal peptide evaluated by SignalP
T1 sequence (A5FBI4 22-494): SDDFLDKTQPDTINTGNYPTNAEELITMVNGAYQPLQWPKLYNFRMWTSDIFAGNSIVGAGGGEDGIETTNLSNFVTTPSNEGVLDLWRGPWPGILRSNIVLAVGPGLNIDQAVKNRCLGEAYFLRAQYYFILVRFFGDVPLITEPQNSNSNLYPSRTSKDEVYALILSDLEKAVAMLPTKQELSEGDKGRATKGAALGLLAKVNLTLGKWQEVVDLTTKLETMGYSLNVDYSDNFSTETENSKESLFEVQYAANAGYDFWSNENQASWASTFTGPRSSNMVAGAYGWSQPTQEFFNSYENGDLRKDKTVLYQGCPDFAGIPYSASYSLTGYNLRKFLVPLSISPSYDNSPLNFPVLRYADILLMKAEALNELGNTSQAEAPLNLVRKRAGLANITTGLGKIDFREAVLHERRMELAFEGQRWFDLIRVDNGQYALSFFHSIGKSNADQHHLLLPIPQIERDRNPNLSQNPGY
Text: isothermal titration calorimetry on FjDusD

FjGH66 = target: T2, FjGH66 (Flavobacterium johnsoniae, UniProt A5FBI2); assay: X-ray crystal structure, […] Å; type: binding
T2 construct: gene Fjoh_4431; domains 41-126, 127-464, 485-586
T2 sequence (A5FBI2 34-586): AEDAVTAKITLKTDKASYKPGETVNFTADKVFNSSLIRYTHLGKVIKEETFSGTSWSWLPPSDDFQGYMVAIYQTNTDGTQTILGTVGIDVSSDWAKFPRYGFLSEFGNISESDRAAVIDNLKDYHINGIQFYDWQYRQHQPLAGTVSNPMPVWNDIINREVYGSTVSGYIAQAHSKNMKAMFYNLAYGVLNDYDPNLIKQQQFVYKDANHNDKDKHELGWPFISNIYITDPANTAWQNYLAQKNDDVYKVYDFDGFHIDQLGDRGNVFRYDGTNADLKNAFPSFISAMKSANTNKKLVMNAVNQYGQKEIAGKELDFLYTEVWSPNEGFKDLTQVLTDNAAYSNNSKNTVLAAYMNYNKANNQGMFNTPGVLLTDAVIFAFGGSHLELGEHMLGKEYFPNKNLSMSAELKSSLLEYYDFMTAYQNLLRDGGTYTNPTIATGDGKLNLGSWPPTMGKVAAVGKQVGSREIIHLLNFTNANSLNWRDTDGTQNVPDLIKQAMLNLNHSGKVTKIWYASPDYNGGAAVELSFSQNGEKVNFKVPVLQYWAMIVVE

| Kd (FjDusD) [µM] | Compound | other results |
| --- | --- | --- |
| 467 ± 156 | OC[C@H]1O[C@H](OC[C@H]2O[C@H](OC[C@H]3O[C@H](OC[C@H]4O[C@H](OC[C@H]5O[C@H](OC[C@H]6OC(O)[C@H](O)[C@@H](O)[C@@H]6O)[C@H](O)[C@@H](O)[C@@H]5O)[C@H](O)[C@@H](O)[C@@H]4O)[C@H](O)[C@@H](O)[C@@H]3O)[C@H](O)[C@@H](O)[C@@H]2O)[C@H](O)[C@@H](O)[C@@H]1O (stereo partly drawn) [Isomaltohexaose] |  |
| 226 ± 29 | OC[C@H]1O[C@H](OC[C@H]2O[C@H](OC[C@H]3O[C@H](OC[C@H]4O[C@H](OC[C@H]5OC(O)[C@H](O)[C@@H](O)[C@@H]5O)[C@H](O)[C@@H](O)[C@@H]4O)[C@H](O)[C@@H](O)[C@@H]3O)[C@H](O)[C@@H](O)[C@@H]2O)[C@H](O)[C@@H](O)[C@@H]1O (stereo partly drawn) [Isomaltopentaose] |  |
|  | OC[C@H]1O[C@H](OC[C@H]2OC(O)[C@H](O)[C@@H](O)[C@@H]2O)[C@H](O)[C@@H](O)[C@@H]1O (stereo partly drawn) [Isomaltose] | X-ray crystal structure, 1.80 Å (FjGH66; crystal soaked with 10 mM IG2): complexes with glucose, IG2, or IG3 were determined |
| 326 ± 14 | OC[C@H]1O[C@H](OC[C@H]2O[C@H](OC[C@H]3O[C@H](OC[C@H]4OC(O)[C@H](O)[C@@H](O)[C@@H]4O)[C@H](O)[C@@H](O)[C@@H]3O)[C@H](O)[C@@H](O)[C@@H]2O)[C@H](O)[C@@H](O)[C@@H]1O (stereo partly drawn) [Isomaltotetraose] |  |
| 621 ± 23 | OC[C@H]1O[C@H](OC[C@H]2O[C@H](OC[C@H]3OC(O)[C@H](O)[C@@H](O)[C@@H]3O)[C@H](O)[C@@H](O)[C@@H]2O)[C@H](O)[C@@H](O)[C@@H]1O (stereo partly drawn) [Isomaltotriose] |  |
|  | OC[C@H]1OC(O)[C@H](O)[C@@H](O)[C@@H]1O (stereo partly drawn) [glucose] | X-ray crystal structure, 1.80 Å (FjGH66; crystal soaked with 10 mM glucose): complexes with glucose, IG2, or IG3 were determined |
